Measurements: patent US9884828B2, “Substituted cinnolines as inhibitors of LRRK2 kinase activity” (Imago Pharmaceuticals, Inc., priority 2011, dated 2018)

Molecular target: recombinant GST-LRRK2 (wild-type) (Homo sapiens (Human), UniProt Q5S007)
Assay: LRRK2 TR-FRET peptide assay (in vitro kinase activity), wild-type
Format: biochemical
Details: 100 μM ATP, 100 nM biotin-LRRKtide substrate, 10 nM kinase, 60 minutes at room temperature
Experimental: Compounds as described herein (compounds of Formula I, e.g., compounds of the above Examples) are tested for their in vitro kinase activities using various LRRK2 (including LRRK2 G2019S mutant) assays. […] Serially diluted compounds (1% DMSO as co-solvent) were pre-incubated with recombinant GST-LRRK2 (wild-type, or G2019S mutant, Invitrogen) for 15 minutes at room temperature in 384-well Corning black plates. […] The inhibition of each well was calculated using the control and background readings for that plate. IC50 values were determined from dose-response curves using eight concentrations from the serial dilution of the test compounds.

recombinant GST-LRRK2 (wild-type), sequence (Q5S007 whole entry): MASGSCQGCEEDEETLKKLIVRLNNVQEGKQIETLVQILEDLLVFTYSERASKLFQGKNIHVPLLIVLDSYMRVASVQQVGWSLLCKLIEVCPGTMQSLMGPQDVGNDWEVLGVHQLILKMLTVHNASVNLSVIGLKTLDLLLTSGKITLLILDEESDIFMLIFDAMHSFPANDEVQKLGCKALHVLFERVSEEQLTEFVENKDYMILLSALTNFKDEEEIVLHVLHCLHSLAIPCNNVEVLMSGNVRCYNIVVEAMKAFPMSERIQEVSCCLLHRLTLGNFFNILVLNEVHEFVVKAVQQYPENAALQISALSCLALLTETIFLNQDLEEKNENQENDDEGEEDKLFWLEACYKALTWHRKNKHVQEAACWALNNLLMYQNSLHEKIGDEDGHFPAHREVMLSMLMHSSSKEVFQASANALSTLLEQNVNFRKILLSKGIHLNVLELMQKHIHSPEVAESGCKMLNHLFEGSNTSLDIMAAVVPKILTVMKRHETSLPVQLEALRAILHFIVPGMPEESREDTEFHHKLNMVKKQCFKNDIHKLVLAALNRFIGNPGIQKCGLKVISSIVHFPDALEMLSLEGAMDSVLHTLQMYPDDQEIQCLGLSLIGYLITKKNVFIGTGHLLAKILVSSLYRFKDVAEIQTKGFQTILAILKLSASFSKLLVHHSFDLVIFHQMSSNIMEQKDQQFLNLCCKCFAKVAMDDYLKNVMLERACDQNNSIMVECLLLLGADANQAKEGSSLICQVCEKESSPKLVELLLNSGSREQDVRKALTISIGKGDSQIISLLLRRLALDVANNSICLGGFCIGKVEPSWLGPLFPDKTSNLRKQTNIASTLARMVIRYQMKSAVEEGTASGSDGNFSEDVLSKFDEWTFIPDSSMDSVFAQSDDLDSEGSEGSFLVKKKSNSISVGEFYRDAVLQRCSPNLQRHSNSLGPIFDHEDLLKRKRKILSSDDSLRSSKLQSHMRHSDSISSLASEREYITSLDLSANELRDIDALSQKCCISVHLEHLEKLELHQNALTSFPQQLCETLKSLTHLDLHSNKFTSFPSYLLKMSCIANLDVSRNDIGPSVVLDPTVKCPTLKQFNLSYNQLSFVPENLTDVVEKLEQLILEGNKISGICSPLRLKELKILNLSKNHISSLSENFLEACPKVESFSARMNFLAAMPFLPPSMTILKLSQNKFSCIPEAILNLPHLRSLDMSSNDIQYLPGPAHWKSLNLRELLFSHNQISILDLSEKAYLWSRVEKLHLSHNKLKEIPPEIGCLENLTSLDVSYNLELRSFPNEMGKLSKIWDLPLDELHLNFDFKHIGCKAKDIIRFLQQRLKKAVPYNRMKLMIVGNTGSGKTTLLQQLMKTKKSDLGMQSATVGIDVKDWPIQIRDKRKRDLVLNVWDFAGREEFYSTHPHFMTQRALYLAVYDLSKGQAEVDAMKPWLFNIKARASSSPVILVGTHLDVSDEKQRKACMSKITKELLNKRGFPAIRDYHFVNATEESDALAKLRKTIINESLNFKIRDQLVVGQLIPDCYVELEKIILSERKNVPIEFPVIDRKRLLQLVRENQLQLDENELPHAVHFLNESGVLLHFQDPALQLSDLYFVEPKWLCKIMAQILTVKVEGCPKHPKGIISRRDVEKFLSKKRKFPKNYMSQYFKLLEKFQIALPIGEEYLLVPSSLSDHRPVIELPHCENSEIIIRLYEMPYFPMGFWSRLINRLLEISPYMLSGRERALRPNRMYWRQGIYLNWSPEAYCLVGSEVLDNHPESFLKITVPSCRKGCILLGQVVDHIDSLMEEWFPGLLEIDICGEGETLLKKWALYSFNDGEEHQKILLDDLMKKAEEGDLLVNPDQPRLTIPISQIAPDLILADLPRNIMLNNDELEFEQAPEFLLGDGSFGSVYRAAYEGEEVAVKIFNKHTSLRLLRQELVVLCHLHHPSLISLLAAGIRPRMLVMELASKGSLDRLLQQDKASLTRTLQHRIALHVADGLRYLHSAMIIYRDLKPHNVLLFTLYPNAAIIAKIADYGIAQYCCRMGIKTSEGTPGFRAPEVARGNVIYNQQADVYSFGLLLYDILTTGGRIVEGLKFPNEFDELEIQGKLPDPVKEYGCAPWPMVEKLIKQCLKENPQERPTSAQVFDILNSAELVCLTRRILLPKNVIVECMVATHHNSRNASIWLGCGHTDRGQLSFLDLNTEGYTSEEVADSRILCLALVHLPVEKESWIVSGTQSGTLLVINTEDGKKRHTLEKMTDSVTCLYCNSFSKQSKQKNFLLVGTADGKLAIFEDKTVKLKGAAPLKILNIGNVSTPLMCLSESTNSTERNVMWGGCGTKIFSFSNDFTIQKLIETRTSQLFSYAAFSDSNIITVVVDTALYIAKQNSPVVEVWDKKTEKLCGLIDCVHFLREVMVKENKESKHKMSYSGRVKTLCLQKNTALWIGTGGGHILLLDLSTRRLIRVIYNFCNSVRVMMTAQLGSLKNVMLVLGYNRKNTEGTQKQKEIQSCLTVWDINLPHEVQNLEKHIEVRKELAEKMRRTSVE

IC50	SMILES
11 nM	C[C@@H](Nc1c(C(N)=O)nnc2cc(-c3ccc4c(c3)CC(=O)N4)ccc12)C1CC1 [Compound 2-106, (R)-4-(1-cyclopropylethylamino)-7-(2-oxoindolin-5-yl)cinnoline-3-carboxamide]
10 nM	C[C@@H](Nc1c(C(N)=O)nnc2cc(-c3ccccc3)ccc12)C1CC1 [Compound 2-110, (R)-4-(1-cyclopropylethylamino)-7-phenylcinnoline-3-carboxamide]
< 6 nM	C[C@@H](Nc1c(C(N)=O)nnc2cc(-c3ccc(=O)n(C)c3)ccc12)C1CC1 [Compound 2-112, (R)-4-(1-cyclopropylethylamino)-7-(1-methyl-6-oxo-1,6-dihydropyridin-3-yl)cinnoline-3-carboxamide]
18 nM	C[C@@H](Nc1c(C(N)=O)nnc2cc(-c3cccc4c3CC(=O)N4)ccc12)C1CC1 [Compound 2-119, (R)-4-(1-cyclopropylethylamino)-7-(2-oxoindolin-4-yl)cinnoline-3-carboxamide]
1 nM	C[C@@H](Nc1c(C(N)=O)nnc2cc(-c3ccc4c(c3)NC(=O)C4)ccc12)C1CC1 [Compound 2-120, (R)-4-(1-cyclopropylethylamino)-7-(2-oxoindolin-6-yl)cinnoline-3-carboxamide]

More lines, now with the values behind:

SMILES	IC50
COc1ccc(C(=O)N(C)C)cc1-c1ccc2c(N[C@H](C)C3CC3)c(C(N)=O)nnc2c1 [Compound 2-107, (R)-4-(1-cyclopropylethylamino)-7-(5-(dimethylcarbamoyl)-2-methoxyphenyl)cinnoline-3-carboxamide]	48 nM
C[C@@H](Nc1c(C(N)=O)nnc2cc(-c3ccccc3OC(F)(F)F)ccc12)C1CC1 [Compound 2-108, (R)-4-(1-cyclopropylethylamino)-7-(2-(trifluoromethoxy)phenyl)cinnoline-3-carboxamide]	4300 nM
COc1ccc(Br)cc1-c1ccc2c(N[C@H](C)C3CC3)c(C(N)=O)nnc2c1 [Compound 2-109, (R)-7-(5-bromo-2-methoxyphenyl)-4-(1-cyclopropylethylamino)cinnoline-3-carboxamide]	710 nM
C[C@@H](Nc1c(C(N)=O)nnc2cc(-c3cccc(S(C)(=O)=O)c3)ccc12)C1CC1 [Compound 2-111, (R)-4-(1-cyclopropylethylamino)-7-(3-(methylsulfonyl)phenyl)cinnoline-3-carboxamide]	1 nM
C[C@@H](Nc1c(C(N)=O)nnc2cc(-c3cccc(OCC4CC4)c3)ccc12)C1CC1 [Compound 2-113, (R)-4-(1-cyclopropylethylamino)-7-(3-(cyclopropylmethoxy)phenyl)cinnoline-3-carboxamide]	51 nM
C[C@@H](Nc1c(C(N)=O)nnc2cc(-c3ccc(C(=O)N(C)C)cc3)ccc12)C1CC1 [Compound 2-114, (R)-4-(1-cyclopropylethylamino)-7-(4-(dimethylcarbamoyl)phenyl)cinnoline-3-carboxamide]	0.5 nM
COc1ccc(S(C)(=O)=O)cc1-c1ccc2c(N[C@H](C)C3CC3)c(C(N)=O)nnc2c1 [Compound 2-115, (R)-4-(1-cyclopropylethylamino)-7-(2-methoxy-5-(methylsulfonyl)phenyl)cinnoline-3-carboxamide]	50 nM
C[C@@H](Nc1c(C(N)=O)nnc2cc(-c3ccc(N4CCOCC4=O)cc3)ccc12)C1CC1 [Compound 2-116, (R)-4-(1-cyclopropylethylamino)-7-(4-(3-oxomorpholino)phenyl)cinnoline-3-carboxamide]	10 nM
C[C@@H](Nc1c(C(N)=O)nnc2cc(-c3ccccc3Cl)ccc12)C1CC1 [Compound 2-117, (R)-7-(2-chlorophenyl)-4-(1-cyclopropylethylamino)cinnoline-3-carboxamide]	460 nM
COc1cc(C(=O)N(C)C)ccc1-c1ccc2c(N[C@H](C)C3CC3)c(C(N)=O)nnc2c1 [Compound 2-118, (R)-4-(1-cyclopropylethylamino)-7-(4-(dimethylcarbamoyl)-2-methoxyphenyl)cinnoline-3-carboxamide]	10 nM
